Source: US6506876B1, “LTA4 hydrolase inhibitor pharmaceutical compositions and methods of use” (G.D. Searle & Co., priority 1994, dated 2003)
pIC50: −log10 of the molar value. Read-outs that look alike come from different tables or passages of the source.

Columns and labels:
[1] = system: LTB4 production in mouse blood (LTA4 hydrolase); assay: Ex vivo LTB4 production by calcium ionophore stimulated mouse blood after oral dosing; type: in vivo; conditions: read-out: Murine Ex Vivo LTB4 Inhibition % I LTB4; for inhibition in vivo at 50 mg/kg: 1 hour after administration of 50 mg/kg (*)
Experimental: Ex Vivo LTB4 and Thromboxane Production by Calcium Ionophore Stimulated Mouse Blood for LTA4 Hydrolase Inhibitor Activity
Leukotriene A4 hydrolase inhibitor compounds of the present invention were diluted to a predetermined concentration in phosphate buffered saline containing 2% DMSO and 1% Tween 80. The compounds were administered by oral gavage to adult male outbred mice weighing approximately 20-30 gm at a dose of 10 mg/kg body weight. (Compounds given at a dose of 50 mg/kg body weight are designtated in following Table by the symbol, *.) Sixty (60) minutes after administration of an LTA4 inhibitor compound of the invention, blood was collected (into heparin-containing tubes) from the retroorbital sinus. […] The mixture was incubated for 10 minutes at 37° C. in a humidified incubator. The reaction was terminated by centrifugation (833 g, 10 minutes at 4° C.). Supernatants were analyzed for LTB4 and thromboxane by commercially available enzyme-linked immunoassays (Caymen Chemical Co., Ann Arbor, Mich.] in accordance with the manufacturer's instructions. The percent inhibition was determined by comparison to animals treated identically except that the solution admininstered by oral gavage was devoid of inhibitor compound.

[2] = biological target: T1, recombinant human LTA4 hydrolase (rhLTA4H) (Homo sapiens, UniProt P09960); assay: Recombinant human LTA4 hydrolase assay for LTA4 hydrolase inhibitor activity; conditions: Recombinant Human LTA4 Hydrolase Assay IC50 LTA4H
T1 sequence (P09960 1-611): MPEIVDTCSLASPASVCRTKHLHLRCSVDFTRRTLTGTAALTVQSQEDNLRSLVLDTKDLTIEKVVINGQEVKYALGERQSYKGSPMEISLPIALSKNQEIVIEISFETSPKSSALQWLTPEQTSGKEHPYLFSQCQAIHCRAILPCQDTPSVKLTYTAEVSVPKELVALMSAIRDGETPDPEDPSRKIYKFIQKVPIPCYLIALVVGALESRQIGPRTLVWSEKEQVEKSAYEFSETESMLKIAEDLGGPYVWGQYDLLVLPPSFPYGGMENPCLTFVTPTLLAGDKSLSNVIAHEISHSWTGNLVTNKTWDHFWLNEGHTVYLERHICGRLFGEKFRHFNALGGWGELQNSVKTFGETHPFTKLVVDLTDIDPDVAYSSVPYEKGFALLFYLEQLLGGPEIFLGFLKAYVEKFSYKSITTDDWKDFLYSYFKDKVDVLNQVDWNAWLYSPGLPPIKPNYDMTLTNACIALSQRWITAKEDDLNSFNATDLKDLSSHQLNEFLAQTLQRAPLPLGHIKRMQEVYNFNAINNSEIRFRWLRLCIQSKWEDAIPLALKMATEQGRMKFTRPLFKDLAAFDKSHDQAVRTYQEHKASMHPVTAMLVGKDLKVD

[3] = mouse, oral gavage, 1 hour after administration of 10 mg/kg

SMILES | inhibition in vivo at 10 mg/kg [1, 3] [%] | pIC50 ([2]; recombinant hLTA4H) | inhibition in vivo at 10 mg/kg ([1]; Mus musculus, po, 1 h) [%] | pIC50 [2] | inhibition in vivo at 50 mg/kg ([1]; mouse, oral gavage) [%]
c1ccc(Oc2ccc(OCCn3cnc4ccncc43)cc2)cc1 [349 A] | 78.5 | 6.32 | – | – | –
c1ccc(Oc2ccc(OCCn3cnc4cnccc43)cc2)cc1 [349 B] | 48 | 6.52 | – | – | –
c1ccc(Oc2ccc(OCCn3ccc4ncnc-4c3)cc2)cc1 [349 C] | 52 | 7.89 | – | – | –
c1ccc(Oc2ccc(OCCCn3cnc4ncccc43)cc2)cc1 [350 B] | 38 | 6.26 | – | – | –
c1ccc(Oc2ccc(OCCCn3cccc4ncnc3-4)cc2)cc1 [350 C] | 35 | 6.21 | – | – | –
c1ccc(Oc2ccc(OCCCn3ccc4ncnc-4c3)cc2)cc1 [351 C] | 42 | 7.37 | – | – | –
Fc1ccc(Oc2ccc(OCCn3cnc4ncccc43)cc2)cc1 [354 B] | 32 | 6.55 | – | – | –
Fc1ccc(Oc2ccc(OCCn3cccc4ncnc3-4)cc2)cc1 [354 C] | 6 | 6.32 | – | – | –
Fc1ccc(Oc2ccc(OCCn3cnc4ccncc43)cc2)cc1 [355 A] | 44 | 5.86 | – | – | –
Fc1ccc(Oc2ccc(OCCn3cnc4cnccc43)cc2)cc1 [355 B] | 37 | 6.06 | – | – | –
Fc1ccc(Oc2ccc(OCCn3ccc4ncnc-4c3)cc2)cc1 [355 C] | 48 | 7.55 | – | – | –
c1ccc(Cc2ccc(OCCCn3cnc4ccncc43)cc2)cc1 [356 A] | 14 | 6.46 | – | – | –
c1ccc(Cc2ccc(OCCCn3cnc4cnccc43)cc2)cc1 [356 B] | 33 | 6.77 | – | – | –
c1ccc(Cc2ccc(OCCCn3ccc4ncnc-4c3)cc2)cc1 [356 C] | 48 | 7.00 | – | – | –
c1ccc(Cc2ccc(OCCn3cnc4ncncc43)cc2)cc1 [357 A] | – | – | 57 | 7.33 | –
Fc1ccc(Oc2ccc(OCCN3CCCC3)cc2)cc1 [Example 48, 1-[2-[4-(4-fluorophenoxy)phenoxy]ethyl]pyrrolidine] | – | 6.82 | 13 | – | –
c1ccc2ncc(Cc3ccc(OCCN4CCCC4)cc3)cc2c1 [Example 132] | 83 | 7.08 | – | – | –
c1csc(Cc2ccc(OCCN3CCCC3)cc2)c1 [Example 133] | 49 | 8.00 | – | – | –
Oc1ccc(Cc2ccc(OCCN3CCCC3)cc2)cc1 [Example 137] | 38 | 7.52 | – | – | –
c1ccc(Cc2ccc(OCCN3CCCC3)cc2)nc1 [Example 138] | 21 | 6.38 | – | – | –
Fc1ccc(Cc2ccc(OCCN3CCCC3)cc2)cc1 [Example 139] | 9 | 6.96 | – | – | –
Fc1cccc(Cc2ccc(OCCN3CCCC3)cc2)c1 [Example 142] | 32 | 7.43 | – | – | –
NC(=O)C1CCN(CCOc2ccc(Cc3ccccc3)cn2)CC1 [Example 147] | 94 | 5.97 | – | – | –
Clc1ccccc1COc1ccc(OCCN2CCCC2)cc1 [Example 208] | 13 | 5.40 | – | – | –
FC(F)(F)c1cccc(COc2ccc(OCCN3CCCC3)cc2)c1 [Example 209] | 0 | 5.52 | – | – | –

SMILES | inhibition in vivo at 10 mg/kg [1, 3] [%] | pIC50 ([2]; recombinant hLTA4H) | inhibition in vivo at 10 mg/kg ([1]; Mus musculus, po, 1 h) [%] | pIC50 [2] | inhibition in vivo at 50 mg/kg ([1]; mouse, oral gavage) [%]
Fc1cccc(COc2ccc(OCCN3CCCC3)cc2)c1 [Example 211] | – | 6.92 | – | – | 47
c1csc(COc2ccc(OCCN3CCCC3)cc2)c1 [Example 215] | – | 7.07 | – | – | 33
NC(=O)C1CCN(CCOc2ccc(Cc3cccs3)cc2)CC1 [Example 229] | 70 | 6.62 | – | – | –
NC(=O)C1CCN(CCOc2ccc(Cc3ccsc3)cc2)CC1 [Example 230] | 53 | 6.41 | – | – | –
NC(=O)C1CCN(CCOc2ccc(Cc3cccc(F)c3)cc2)CC1 [Example 233] | 98 | 6.43 | – | – | –
c1ccc(Cc2ccc(OCCNC3CCCCC3)cc2)cc1 [Example 240] | 33 | 5.97 | – | – | –
c1ccc(Cc2ccc(OCCNC3CCCC3)cc2)cc1 [Example 241] | 33 | 6.22 | – | – | –
OC1CCN(CCOc2ccc(Cc3ccccc3)cc2)CC1 [Example 247] | 70 | 7.00 | – | – | –
O=C(NC1CCN(CCOc2ccc(Cc3ccccc3)cc2)CC1)c1cc2ccccc2o1 [Example 248] | 56 | 6.70 | – | – | –
NC(=O)C1CCN(CCOc2ccc(Oc3ccccc3)cc2)CC1 [Example 252] | 94 | 6.80 | – | – | –
NC(=O)C1CCCN(CCOc2ccc(Oc3ccccc3)cc2)C1 (stereo not shown) [Example 253] | 73 | 6.04 | – | – | –
CCOC(=O)C1CCN(CCOc2ccc(Oc3ccccc3)cc2)CC1 [Example 254] | 87 | 5.22 | – | – | –
O=C(OCc1ccccc1)C1CCCN1CCCOc1ccc(Cc2ccccc2)cc1 (stereo not shown) [Example 258] | – | 5.90 | – | – | 81
c1ccc(Cc2ccc(OCCCN3CCCC3)cc2)cc1 [Example 259] | – | 7.00 | – | – | 35
COC(=O)C1CN(CCCOc2ccc(Cc3ccccc3)cc2)CCC1=O (stereo not shown) [Example 262] | 52 | 6.66 | – | – | –
CC(C)(C)OC(=O)C1CCN(CCCOc2ccc(Cc3ccccc3)cc2)CC1 [Example 263] | 60 | 5.35 | – | – | –
O=C(CCNCCOc1ccc(Cc2ccccc2)cc1)OCc1ccccc1 [Example 266] | 29 | 5.19 | – | – | –
COC(=O)CCNCCCOc1ccc(Cc2ccccc2)cc1 [Example 267] | – | 6.77 | – | – | 100
CCOC(=O)C1CCCN(CCCOc2ccc(Cc3ccccc3)cc2)C1 (stereo not shown) [Example 269] | 50 | 5.56 | – | – | –
O=C(CCNCCCCOc1ccc(Cc2ccccc2)cc1)OCc1ccccc1 [Example 273] | 100 | 6.21 | – | – | –
c1ccc(Cc2ccc3c(c2)CC(CN2CCCC2)O3)cc1 (stereo not shown) [Example 280] | 33 | 7.96 | – | – | –
CCOC(=O)C1CCN(CC2Cc3cc(Cc4ccccc4)ccc3O2)CC1 (stereo not shown) [Example 282] | 57 | 5.43 | – | – | –
NC(=O)C1CCN(CC2Cc3cc(Cc4ccccc4)cnc3O2)CC1 (stereo not shown) [Example 288] | 0 | 6.15 | – | – | –
NC(=O)C1CCN(CC2Cc3cc(Oc4ccccc4)ccc3O2)CC1 (stereo not shown) [Example 290] | 94 | 6.35 | – | – | –
CCOC(=O)C1CCN(CC2Cc3cc(Oc4ccccc4)ccc3O2)CC1 (stereo not shown) [Example 291] | 67 | 5.10 | – | – | –
